According to US8729087B2, “Compositions and methods for inhibition of the JAK pathway” (Rigel Pharmaceuticals, Inc., priority 2006, dated 2014):
Like-named read-outs stand apart in the source and are kept apart here.

Legend:
Primary human T-cells = assay: Primary Human T-Cell Proliferation Assay Stimulated with IL-2 (CellTiter-Glo); assay type: cell-based; settings: read-out: Example 3 (IC50, primary human T-cell proliferation stimulated with IL-2)
Source text: The activity of the active compounds of the invention may further be characterized by assaying the effect of the 2,4-pyrimidinediamine compounds described herein on the proliferative response of primary human T-cells. In this assay, primary human T-cells derived from peripheral blood and pre-activated through stimulation of the T-cell receptor and CD28, proliferate in culture in response to the cytokine Interleukin-2 (IL-2). This proliferative response is dependent on the activation of JAK1 and JAK3 tyrosine kinases, which phosphorylate and activate the transcription factor Stat-5. The primary human T-cells are incubated with the 2,4-pyrimidinediamine compounds in the presence of IL-2 for 72 hours and at the assay endpoint intracellular ATP concentrations are measured to assess cell viability. A reduction in cell proliferation compared to control conditions is indicative of inhibition of the JAK kinase pathway. An exemplary assay of this type is described in greater detail in Example 3.
Primary human T-cells derived from peripheral blood and pre-activated through stimulation of the T-cell receptor and CD28, proliferate in vitro in response to the cytokine Interleukin-2 (IL-2). This proliferative response is dependent on the activation of JAK-1 and JAK-3 tyrosine kinases, which phosphorylate and activate the transcription factor Stat-5.
Human primary T cells were prepared as follows. Whole blood was obtained from a healthy volunteer, mixed 1:1 with PBS, layered on to Ficoll Hypaque (Amersham Pharmacia Biotech, Piscataway, N.J., Catalog #17-1440-03) in 2:1 blood/PBS:ficoll ratio and centrifuged for 30 min at 4° C. at 1750 rpm. The lymphocytes at the serum: ficoll interface were recovered and washed twice with 5 volumes of PBS. The cells were resuspended in Yssel's medium (Gemini Bio-products, Woodland, Calif., Catalog #400-103) containing 40 U/mL recombinant IL2 (R and D Systems, Minneapolis, Minn., Catalog #202-IL (20 μg)) and seeded into a flask pre-coated with 1 μg/mL anti-CD3 (BD Pharmingen, San Diego, Calif., Catalog #555336) and […] (Immunotech, Beckman Coulter of Brea Calif., Catalog #IM1376). The primary T-cells were stimulated for 3-4 days, then transferred to a fresh flask and maintained in RPMI with 10% FBS and 40 U/mL IL-2.
Primary T-cells were washed twice with PBS to remove the IL-2 and resuspended in Yssel's medium at 2×10^6 cells/mL. 50 μL of cell suspension containing 80 U/mL IL-2 was added to each well of a flat bottom 96 well black plate. For the unstimulated control, IL-2 was omitted from the last column on the plate. Compounds were serially diluted in dimethyl sulfoxide (DMSO, 99.7% pure, cell culture tested, Sigma-Aldrich, St. Louis, Mo., Catalog No. D2650) from 5 mM in 3-fold dilutions, and then diluted 1:250 in Yssel's medium. 50 μL of 2× compound was added per well in duplicate and the cells were allowed to proliferate for 72 hours at 37° C.
Proliferation was measured using CellTiter-Glo® Luminescent Cell Viability Assay (Promega), which determines the number of viable cells in culture based on quantitation of the ATP present, as an indicator of metabolically active cells. The substrate was thawed and allowed to come to room temperature. After mixing the Cell Titer-Glo reagent and diluent together, 100 μL was added to each well. The plates were mixed on an orbital shaker for two minutes to induce lysis and incubated at room temperature for an additional ten minutes to allow the signal to equilibrate. Detection was performed using a Wallac Victor2 1420 multilabel counter purchased from Perkin Elmer, Shelton, Conn.

[1] = test system: Ramos B-cell line stimulated with IL-4; assay: Assay for Ramos B-Cell Line Stimulated with IL-4 (CD23 upregulation, FACS); assay type: cell-based, human; settings: read-out: Example 2 (IC50, Ramos B-cell line stimulated with IL-4)
Source text: One means of assaying for such inhibition is detection of the effect of the 2,4-pyrimidinediamine compounds on the upregulation of downstream gene products. In the Ramos/IL4 assay, B-cells are stimulated with the cytokine Interleukin-4 (IL-4) leading to the activation of the JAK/Stat pathway through phosphorylation of the JAK family kinases, JAK1 and JAK3, which in turn phosphorylate and activate the transcription factor Stat-6. […] To study the effect of inhibitors (e.g., the 2,4-substituted pyrimindinediamine compounds described herein) on the JAK1 and JAK3 kinases, human Ramos B cells are stimulated with human IL-4. Twenty to 24 hours post stimulation, cells are stained for upregulation of CD23 and analyzed using flow cytometry (FACS). […] An exemplary assay of this type is described in greater detail in Example 2.
B-cells stimulated with cytokine Interleukin-4 (IL-4) activate the JAK/Stat pathway through phosphorylation of the JAK family kinases, JAK-1 and JAK-3, which in turn phosphorylate and activate the transcription factor Stat-6. […] To study the effect of inhibitors on the JAK family kinases, human Ramos B cells are stimulated with human IL-4.
The Ramos B-cell line was acquired from ATCC (ATCC Catalog No. CRL-1596). The cells were cultured in RPMI 1640 (Cellgro, MediaTech, Inc., Herndon, Va., Cat No. 10-040-CM) with 10% fetal bovine serum (FBS), heat inactivated (JRH Biosciences, Inc, Lenexa, Kans., Cat No. 12106-500M) according to ATCC propagation protocol. Cells were maintained at a density of 3.5×10^5. The day before the experiment, Ramos B-cells were diluted to 3.5×10^5 cells/mL to ensure that they were in a logarithmic growth phase.
Cells were spun down and suspended in RPMI with 5% serum. 5×10^4 cells were used per point in a 96-well tissue culture plate. Cells were pre-incubated with compound or DMSO (Sigma-Aldrich, St. Louis, Mo., Cat No. D2650) vehicle control for 1 hour in a 37° C. incubator.
Cells were then stimulated with IL-4 (Peprotech Inc., Rocky Hill, N.J., Cat No. 200-04) for a final concentration of 50 units/mL for 20-24 hours. Cells were then spun down and stained with anti-CD23-PE (BD Pharmingen, San Diego, Calif., Cat No. 555711) and analyzed by FACS. Detection was performed using a BD LSR I System Flow Cytometer, purchased from Becton Dickinson Biosciences of San Jose, Calif.

[2] = IL-2, 72 hours, ATP quantitation (CellTiter-Glo)
[3] = IL-4 50 units/mL, 20-24 hours, anti-CD23-PE staining, FACS
[4] = Homo sapiens, T-cell, 72 h, IL-2, 72 hours, ATP quantitation (CellTiter-Glo)
[5] = Homo sapiens, Ramos, IL-4 50 units/mL, 20-24 hours, anti-CD23-PE staining, FACS

SMILES | IC50 (Primary human T-cells; [2]) [nM] | IC50 [1, 3] [nM] | further results
CCS(=O)(=O)NCc1ccc(Nc2nc(Nc3ccc(CS(=O)(=O)NC)cc3)ncc2C)cc1 [Compound I-2, N4-(4-ethylsulfonylaminomethyl)phenyl-5-methyl-N2-(4-methylaminosulfonylmethyl)phenyl-2,4-pyrimidinediamine] | 79.6 | 70.3 | 
Cc1cnc(Nc2ccc(CNS(=O)(=O)C3CC3)cc2)nc1Nc1ccc(CNS(=O)(=O)C2CC2)cc1 [II-1, N2,N4-bis(4-cyclopropylsulfonylaminomethyl)phenyl-5-methyl-2,4-pyrimidinediamine] | 26 | 45.2 | 
CC1(C)Oc2cc(Nc3nc(Nc4cccc(CS(N)(=O)=O)c4)ncc3F)cnc2NC1=O [IV-1, N2-[3-(Aminosulfonylmethylene)phenyl]-N4-[2,2-dimethyl-3-oxo-4H-pyrid[1,4]oxazin-7-yl]-5-fluoro-2,4-pyrimidinediamine] | 482 | 133 | 
Cc1cnc(Nc2ccc(S(N)(=O)=O)cc2)nc1Nc1ccc2c(c1)C(NS(C)(=O)=O)CC2 (racemic) [VI-2, (+/−)-N2-(4-Aminosulfonylphenyl)-5-methyl-N4-[1-(methylsulfonyl)aminoindan-6-yl]-2,4-pyrimidinediamine] |  |  | IC50 (Primary human T-cells; [4]): 1020 nM; IC50 [1, 5]: 279 nM
CCS(=O)(=O)NCc1ccc(Nc2nc(Nc3ccc(CS(=O)(=O)NC)cc3)ncc2F)cc1 [Compound I-10, N4-(4-ethylsulfonylaminomethyl)phenyl-5-fluoro-N2-(4-methylaminosulfonylmethyl)phenyl-2,4-pyrimidinediamine] | 424 | 285 | 
C#CCOc1ccc(Nc2nc(Nc3ccc4c(c3)CN(S(N)(=O)=O)CC4)ncc2F)cc1 [III-4, N2-(2-Aminosulfonyl-1,2,3,4-tetrahydroisoquinolin-7-yl)-N4-(4-(prop-2-ynyloxy)phenyl)-5-fluoro-2,4-pyrimidinediamine] |  |  | IC50 (Primary human T-cells; Homo sapiens, T-cell, 72 h): 129 nM; IC50 ([1]; Homo sapiens, Ramos): 101 nM
CN1C(=O)C(C)(C)Oc2cc(Nc3nc(Nc4cccc(CS(N)(=O)=O)c4)ncc3F)cnc21 [IV-2, N2-[3-(Aminosulfonylmethylene)phenyl]-N4-[2,2-dimethyl-3-oxo-4-methyl-pyrid[1,4]oxazin-7-yl]-5-fluoro-2,4-pyrimidinediamine] | 881 | 170 | 
Cc1cnc(Nc2ccc(CCNS(=O)(=O)C3CC3)cc2)nc1Nc1ccc(CCNS(=O)(=O)C2CC2)cc1 [II-2, N2,N4-bis[4-(2-cyclopropylsulfonylamino)ethyl]phenyl-5-methyl-2,4-pyrimidine diamine] | 317 | 202 | 
N#CCOc1ccc(Nc2nc(Nc3cccc(CS(N)(=O)=O)c3)ncc2F)cc1 [Compound I-1, N2-[3-(Aminosulfonylmethylene)phenyl]-5-fluoro-N4-(4-cyanomethyleneoxyphenyl)-2,4-pyrimidinediamine] | 93 | 48.9 | 
CNS(=O)(=O)Cc1ccc(Nc2ncc(F)c(Nc3ccc(CNS(=O)(=O)C4CC4)cc3)n2)cc1 [Compound I-8, N4-(4-cyclopropylsulfonylaminomethyl)phenyl-5-fluoro-N2-(4-methylaminosulfonylmethyl)phenyl-2,4-pyrimidinediamine] | 229 | 147 | 
COc1cc(Nc2nc(Nc3ccc4c(c3)CN(S(N)(=O)=O)CC4)ncc2F)ccc1Cl [III-1, N2-(2-Aminosulfonyl-1,2,3,4-tetrahydroisoquinolin-7-yl)-N4-(4-chloro-3-methoxyphenyl)-5-fluoro-2,4-pyrimidinediamine] |  |  | IC50 (Primary human T-cells; [4]): 279 nM; IC50 [1, 5]: 129 nM
NS(=O)(=O)N1CCc2ccc(Nc3ncc(F)c(Nc4ccc(CNS(=O)(=O)C5CC5)cc4)n3)cc2C1 [III-2, N2-(2-Aminosulfonyl-1,2,3,4-tetrahydroisoquinolin-7-yl)-N4-[4-(cyclopropylsulfonylaminomethyl)phenyl]-5-fluoro-2,4-pyrimidinediamine] |  |  | IC50 (Primary human T-cells; [4]): 16.6 nM; IC50 [1, 5]: 27.4 nM
